Assay results as given in patent US20210238124A1, “ACETYLATED PRODRUGS FOR DELIVERY ACROSS THE BLOOD-BRAIN BARRIER” (THE GENERAL HOSPITAL CORPORATION, priority 2018, published 2021).

Columns and labels:
Aβ42 fibers = Aβ42 fibers (Homo sapiens, UniProt P05067); conditions: cited from earlier work
[1] = Biodistribution of 4-[^18F]-fluoroinositol in normal rats; assay type: in vivo; conditions: FIG. 1
[2] = Biodistribution / brain uptake of ^18F-scyllo-inositols 1 and 2; assay type: in vivo, rats
Procedure: Brain uptake (% DPG) at 5, 30, and 60 min for the acetylated derivative 1 was 0.8%, 0.9%, and 0.26% (See FIG. 4).
Inositol is transported across the blood-brain barrier by a low capacity, saturable system.

[3] = rat, in vivo
Procedure: Here, imaging is performed in normal rats and rats pretreated with mannitol.
PET imaging was performed in a rats using a Siemens Focus 220 scanner with Neurological CT scanner. [^18F]-fluoromannitol (1.2 mCi) was injected via tail-vein and imaged in list mode for one hour.
In a separate experiment, a 25% solution of D-mannitol was i.v. injected 30 min prior to tracer injection.

large intestinal cancer = conditions: rats fed prior to carcinogen treatment; cited from earlier work

Sequence of Aβ42 fibers (P05067 672-713 limits assumed): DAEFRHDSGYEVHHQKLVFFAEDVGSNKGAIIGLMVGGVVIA

In the case of `OC1C(O)C(O)C(F)C(O)C1O` (centres unmarked) [1-deoxy-1-fluoro-scyllo-inositol], the “formation of Aβ42 fibers” value (Aβ42 fibers) is given as “significantly inhibit”.
With `OC1C(O)C(O)C(F)C(O)C1O` (centres unmarked) [4-[^18F]-fluoroinositol, 4-deoxy-4-fluoro-myo-inositol] the defluorination [1] was “minimal” and the “tissue accumulation (biodistribution)” value [1] was “high and fast accumulation in kidney and bladder without any other specific tissue accumulation”.
For `CC(=O)OC1C([18F])C(OC(C)=O)C(OC(C)=O)C(OC(C)=O)C1OC(C)=O` (centres unmarked) [Compound 1, 1-deoxy-1-[^18F]-fluoro-2,3,4,5,6-penta-O-acetyl-scyllo-inositol], the brain clearance ([2]; rat, in vivo) was “significant brain clearance”.
With `OC1C(O)C(O)C([18F])C(O)C1O` (centres unmarked) [Compound 2, 1-deoxy-1-[^18F]-fluoro-scyllo-inositol] the “Brain uptake (% DPG)” value ([2]; 5 min) was 0.18 % DPG, the “Brain uptake (% DPG)” value ([2]; 30 min) was 0.30 % DPG and the “Brain uptake (% DPG)” value ([2]; 60 min) was 0.36 % DPG. For the same compound, the “site of majority of the activity” value ([2]; FIG. 5) was “majority of the activity accumulating in kidneys”.
In the case of `OC[C@@H](O)[C@@H](O)[C@H](O)[C@H](O)C[18F]` [[^18F]-Fluoromannitol, 1-deoxy-1-[^18F]-fluoro-D-mannitol], the “Brain accumulation (% injected dose)” value [3] is reported as 0.1 % ID, the “Brain activity (% injected dose)” value [3] is reported as 0.08 % ID and the “brain uptake in the images” value [3] is reported as “high brain uptake”. The early brain kinetics [3] was “very fast flow related brain accumulation and washout”.
In the case of `O[C@H]1[C@H](O)[C@@H](O)[C@H](O)[C@@H](O)[C@@H]1O` [scyllo-inositol], the “formation of Aβ42 fibers” value (Aβ42 fibers) is listed as “inhibiting Aβ42 fiber formation”.
For `O=P([O-])(O)OC1C(OP(=O)(O)O)C(OP(=O)(O)O)C(OP(=O)(O)O)C(OP(=O)(O)O)C1OP(=O)(O)O.[Na+]` (centres unmarked) [sodium inositol hexaphosphate], the “decrease in large intestinal cancer compared to the control carcinogen group” value (large intestinal cancer) is listed as 35%.
